# Measurements published in the supplement of paper PMC4862054.
# Assays:
# Hs578T [1] = assay: normalised viability (% of control), CellTiter-Blue; higher = more viable cells (100 = DMSO, 0 = benzethonium chloride kill control); settings: 0.1 nM; incubation time: 72 h
# Protocol: (§1)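 DSRT, CellTiter-Blue viability, 72 h incubation. Signal is normalised to DMSO and benzethonium chloride controls. Value is the normalised response at dose 1.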
# SK-BR-3 [2] = assay: as above; settings: 0.1 nM; incubation time: 72 h
# Protocol: as §1
# MFM-223 = assay: as above; settings: 0.1 nM; incubation time: 72 h
# Protocol: as §1
# MDA-MB-436 = assay: as above; settings: 0.1 nM; incubation time: 72 h
# Protocol: as §1
# HCC1143 = assay: as above; settings: 0.1 nM; incubation time: 72 h
# Protocol: as §1
# CAL-120 [3] = assay: as above; settings: 0.1 nM; incubation time: 72 h
# Protocol: as §1
# HCC1599 = assay: as above; settings: 0.1 nM; incubation time: 72 h
# Protocol: as §1
# CAL-148 [4] = assay: as above; settings: 0.1 nM; incubation time: 72 h
# Protocol: as §1
# DU-4475 = assay: as above; settings: 0.1 nM; incubation time: 72 h
# Protocol: as §1
# CAL-85-1 [5] = assay: as above; settings: 0.1 nM; incubation time: 72 h
# Protocol: as §1
# MDA-MB-468 [6] = assay: as above; settings: 0.1 nM; incubation time: 72 h
# Protocol: as §1
# BT-549 [7] = assay: as above; settings: 0.1 nM; incubation time: 72 h
# Protocol: as §1
# MDA-MB-453 = assay: as above; settings: 0.1 nM; incubation time: 72 h
# Protocol: as §1
# HCC1937 [8] = assay: as above; settings: 0.1 nM; incubation time: 72 h
# Protocol: as §1
# HDQ-P1 = assay: as above; settings: 0.1 nM; incubation time: 72 h
# Protocol: as §1
# MDA-MB-231 [9] = assay: as above; settings: 0.1 nM; incubation time: 72 h
# Protocol: as §1
# Hs578T [10] = assay: drug sensitivity score (DSS), CellTiter-Glo (DSS (AUC-based score)); higher = stronger drug effect (viability inhibition or cytotoxicity); extreme values may be limits of the assay; settings: incubation time: 72 h
# How it was run: (§2)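 Plates with 384 wells held compound at 5 concentrations in 10-fold steps over a 10,000-fold range specific to each compound. Breast cancer cell lines were added in 20 µl suspension and incubated 72 h, then read for CellTox Green and CellTiter-Glo signals, with each plate normalised to 0.1 % DMSO and a positive kill control. The drug sensitivity score is based on the area under the fitted dose-response curve.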
# CAL-51 = assay: as above; settings: incubation time: 72 h
# How it was run: as §2
# SK-BR-3 [11] = assay: as above; settings: incubation time: 72 h
# How it was run: as §2
# CAL-120 [12] = assay: as above; settings: incubation time: 72 h
# How it was run: as §2
# CAL-148 [13] = assay: as above; settings: incubation time: 72 h
# How it was run: as §2
# CAL-85-1 [14] = assay: as above; settings: incubation time: 72 h
# How it was run: as §2
# MDA-MB-468 [15] = assay: as above; settings: incubation time: 72 h
# How it was run: as §2
# BT-549 [16] = assay: as above; settings: incubation time: 72 h
# How it was run: as §2
# BT-474 = assay: as above; settings: incubation time: 72 h
# How it was run: as §2
# HCC1937 [17] = assay: as above; settings: incubation time: 72 h
# How it was run: as §2
# MDA-MB-231 [18] = assay: as above; settings: incubation time: 72 h
# How it was run: as §2
compound,measurement,setting,value
CC[C@@H]1C(=O)N(C)c2cnc(Nc3ccc(C(=O)NC4CCN(C)CC4)cc3OC)nc2N1C1CCCC1 [BI 2536],normalised viability,Hs578T [1],122%
same,normalised viability,SK-BR-3 [2],98.5%
same,normalised viability,MFM-223,99%
same,normalised viability,MDA-MB-436,112%
same,normalised viability,HCC1143,109%
same,normalised viability,CAL-120 [3],91.8%
same,normalised viability,HCC1599,83.2%
same,normalised viability,CAL-148 [4],98%
same,normalised viability,DU-4475,109%
same,normalised viability,CAL-85-1 [5],96.3%
same,normalised viability,MDA-MB-468 [6],114%
same,normalised viability,BT-549 [7],115%
same,normalised viability,MDA-MB-453,94.7%
same,normalised viability,HCC1937 [8],86.5%
same,normalised viability,HDQ-P1,94%
same,normalised viability,MDA-MB-231 [9],105%
same,drug sensitivity score,Hs578T [10],13.3
same,drug sensitivity score,CAL-51,17.7
same,drug sensitivity score,SK-BR-3 [11],25.7
same,drug sensitivity score,CAL-120 [12],11.2
same,drug sensitivity score,CAL-148 [13],5.51
same,drug sensitivity score,CAL-85-1 [14],14.1
same,drug sensitivity score,MDA-MB-468 [15],19.5
same,drug sensitivity score,BT-549 [16],21.3
same,drug sensitivity score,BT-474,8.94
same,drug sensitivity score,HCC1937 [17],0
same,drug sensitivity score,MDA-MB-231 [18],13.3
